# According to patent US8455475B2 (Gruenenthal GmbH, priority 2009, dated 2013):
# Structures can show the parent of a compound that is named as a salt.
# Legend:
# [1] = target: T1, rat B1R (bradykinin receptor 1) (Rattus norvegicus, UniProt P97583); assay: FLIPR Ca2+ assay (Fluo-4) on CHO K1 cells stably transfected with the B1R gene of the rat (rB1R cells): % inhibition at 10 μM / IC50, agonist Des-Arg9-bradykinin; type: cell-based; conditions: CHO-K1, rat B1R
# T1 construct: expressed in transfected cells; host or cells: CHO K1 cells
# T1 sequence (P97583 1-337): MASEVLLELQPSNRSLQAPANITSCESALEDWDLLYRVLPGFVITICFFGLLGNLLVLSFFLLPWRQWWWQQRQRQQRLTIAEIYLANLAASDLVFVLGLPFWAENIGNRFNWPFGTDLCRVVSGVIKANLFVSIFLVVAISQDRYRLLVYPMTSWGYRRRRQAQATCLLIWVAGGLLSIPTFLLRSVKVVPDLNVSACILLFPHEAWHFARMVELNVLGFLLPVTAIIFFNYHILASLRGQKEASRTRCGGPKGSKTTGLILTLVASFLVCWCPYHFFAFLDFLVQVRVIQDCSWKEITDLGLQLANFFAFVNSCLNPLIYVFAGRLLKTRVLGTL
# Procedure, shortened: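 Stably transfected CHO K1 cells loaded with Fluo-4 and read on FLIPR (λex 488, λem 540 nm; peak fluorescence). Test substance (10 μM) added first, then after 10–20 min the agonist at EC80; % inhibition versus maximum achievable inhibition. IC50 from several concentrations, n=2–3, N≥2.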
# [2] = target: T2, human B1R (bradykinin receptor 1) (Homo sapiens, UniProt P46663); assay: FLIPR Ca2+ assay (Fluo-4) on CHO K1 cells stably transfected with the human B1R gene (hB1R cells): % inhibition at 10 μM / IC50, agonist Lys-Des-Arg9-bradykinin; type: cell-based; conditions: CHO-K1, human B1R
# T2 construct: expressed in transfected cells; host or cells: CHO K1 cells
# T2 sequence (P46663 1-353): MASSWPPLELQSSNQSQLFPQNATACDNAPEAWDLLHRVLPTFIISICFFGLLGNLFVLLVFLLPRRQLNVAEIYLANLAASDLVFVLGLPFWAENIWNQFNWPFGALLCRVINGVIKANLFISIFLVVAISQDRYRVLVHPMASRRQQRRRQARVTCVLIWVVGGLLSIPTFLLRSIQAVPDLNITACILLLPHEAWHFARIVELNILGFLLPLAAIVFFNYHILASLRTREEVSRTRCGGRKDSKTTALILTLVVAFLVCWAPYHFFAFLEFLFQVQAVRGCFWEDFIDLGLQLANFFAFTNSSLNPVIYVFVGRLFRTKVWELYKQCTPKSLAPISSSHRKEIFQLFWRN
# Procedure: The agonistic or antagonistic action of substances can be quantified on the bradykinin receptor 1 (B1R) of the human and rat species with ectopically expressing cell lines (CHO K1 cells) and with the aid of a Ca^2+-sensitive dyestuff (Fluo-4) in a fluorescent imaging plate reader (FLIPR). The figure in % activation is based on the Ca^2+ signal after addition of Lys-Des-Arg^9-bradykinin (0.5 nM) or Des-Arg^9-bradykinin (100 nM). Antagonists lead to a suppression of the Ca^2+ inflow after addition of the agonist. % inhibition compared with the maximum achievable inhibition is stated.
# The agonistic or antagonistic action of substances can be determined on the bradykinin receptor 1 (B1R) of the human and rat species with the following assay. In accordance with this assay, the Ca^2+ inflow through the channel is quantified with the aid of a Ca^2+-sensitive dyestuff (type Fluo-4, Molecular Probes Europe BV, Leiden, Holland) in a fluorescent imaging plate reader (FLIPR, Molecular Devices, Sunnyvale, USA).
# Chinese hamster ovary cells (CHO K1 cells) transfected stably with the human B1R gene (hB1R cells) or the B1R gene of the rat (rB1R cells) are used. For functional studies, these cells are plated out on black 96-well plates with a clear base (BD Biosciences, Heidelberg, Germany or Greiner, Frickenhausen, Germany) in a density of 20,000-35,000 cells/well. The cells are left overnight at 37° C. and 5% CO2 in culture medium (hB1R cells: Nutrient Mixture Ham's F12, Gibco Invitrogen GmbH, Karlsruhe, Germany or DMEM, Sigma-Aldrich, Taufkirchen, Germany; rB1R cells: D-MEM/F12, Gibco Invitrogen GmbH, Karlsruhe, Germany) with 10 vol. % FBS (foetal bovine serum, Gibco Invitrogen GmbH, Karlsruhe, Germany or PAN Biotech GmbH, Aidenbach, Germany). On the following day, the cells are loaded for 60 min at 37° C. with 2.13 μM Fluo-4 (Molecular Probes Europe BV, Leiden Holland) in HBSS buffer (Hank's buffered saline solution, Gibco Invitrogen GmbH, Karlsruhe, Germany) with 2.5 mM probenecid (Sigma-Aldrich, Taufkirchen, Germany) and 10 mM HEPES (Sigma-Aldrich, Taufkirchen, Germany). The plates are then washed 2× with HBSS buffer, and HBSS buffer which additionally contains 0.1% BSA (bovine serum albumin; Sigma-Aldrich, Taufkirchen, Germany), 5.6 mM glucose and 0.05% gelatine (Merck KGaA, Darmstadt, Germany) is added. After a further incubation of 20 minutes at room temperature, the plates are inserted into the FLIPR for the Ca^2+ measurement. Alternatively, the plates are washed with buffer A (15 mM HEPES, 80 mM NaCl, 5 mM KCl, 1.2 mM CaCl2, 0.7 mM MgSO4, 2 g/l glucose, 2.5 mM probenecid), buffer A is added and the plates are loaded with 2.5 μM Fluo-4 and 0.025% Pluronic F127 (Sigma-Aldrich, Taufkirchen, Germany). Thereafter, the cells are washed 2× with buffer A and incubated for 30 minutes at room temperature with buffer A, which additionally contains 0.05% BSA and 0.05% gelatine, and thereafter inserted into the FLIPR for the Ca^2+ measurement. The Ca^2+-dependent fluorescence is measured here before and after addition of substances (λex=488 nm, λem=540 nm). Quantification is by measurement of the highest fluorescence intensity (FC, fluorescence counts) over time.
# The FLIPR protocol consists of 2 additions of substance. Test substances (10 μM) are first pipetted on to the cells and the Ca^2+ inflow is compared with the control (hB1R: Lys-Des-Arg^9-bradykinin>=50 nM; rB1R: Des-Arg^9-bradykinin 10 μM). This gives the result in % activation based on the Ca^2+ signal after addition of Lys-Des-Arg^9-bradykinin (>=50 nM) or Des-Arg^9-bradykinin (10 μM). After incubation for 10-20 minutes, Lys-Des-Arg^9-bradykinin (hB1R) or Des-Arg^9-bradykinin (rB1R) in the concentration of the EC80 is applied and the inflow of Ca^2+ is likewise determined. Antagonists lead to a suppression of the Ca^2+ inflow. % inhibition compared with the maximum achievable inhibition is calculated.
# For determination of the IC50 value, the substances are added in various concentrations. […]
inhibition at 10 µM [1] [%],inhibition at 10 µM [2] [%],SMILES
96,98,"O=C(NC1CCc2ccc(C(=O)N3CCC4(CCN(c5ccnc(C(F)(F)F)n5)CC4)C3)cc21)c1ccccc1Cl (stereo not drawn) [Example H-51, 2-chloro-N-[6-[8-[2-(trifluoromethyl)-pyrimidin-4-yl]-3,8-diazaspiro[4.5]decane-3-carbonyl]-2,3-dihydro-1H-inden-1-yl]-benzamide]"
104,100,"Cc1ccccc1C(=O)N[C@@H]1CCc2ccc(C(=O)N3CCC4(CCN(c5ccncc5)CC4)C3)cc21 [Example H-53, 2-Methyl-N-[(1R)-6-(8-pyridin-4-yl-3,8-diazaspiro[4.5]decane-3-carobnyl)-2,3-dihydro-1H-inden-1-yl]-benzamide]"
102,98,"O=C(N[C@@H]1CCc2ccc(C(=O)N3CCCC4(CCN(c5ccncc5)CC4)C3)cc21)c1ccccc1Cl [Example H-54, 2-Chloro-N-[(1R)-6-(9-pyridin-4-yl-2,9-diazaspiro[5.5]undecane-2-carbonyl)-2,3-dihydro-1H-inden-1-yl]-benzamide]"
105,99,"Cc1cc2c(cc1C(=O)N1CCC3(CC1)CCN(c1ccncc1)C3)[C@H](NC(=O)c1ccccc1Cl)CC2 [Example H-59, 2-Chloro-N-[(1R)-5-methyl-6-(3-pyridin-4-yl-3,8-diazaspiro[4.5]decane-8-carbonyl)-2,3-dihydro-1H-inden-1-yl]-benzamide]"
101,82,"COc1ccc(C(=O)N[C@@H]2CCc3ccc(C(=O)N4CCC5(CC4)CCN(c4ccncc4)C5)cc32)c(Cl)c1 [Example H-60, 2-Chloro-4-methoxy-N-[(1R)-6-(3-pyridin-4-yl-3,8-diazaspiro[4.5]decane-8-carbonyl)-2,3-dihydro-1H-inden-1-yl]-benzamide]"
104,100,"COc1ccc(C(=O)N[C@@H]2CCc3ccc(C(=O)N4CCC5(CCN(c6ccncc6)CC5)C4)cc32)c(C)c1 [Example H-61, 4-Methoxy-2-methyl-N-[(1R)-6-(8-pyridin-4-yl-3,8-diazaspiro[4.5]decane-3-carbonyl)-2,3-dihydro-1H-inden-1-yl]-benzamide]"
104,100,"COc1ccc(C(=O)N[C@@H]2CCc3ccc(C(=O)N4CCC5(CCN(c6ccncc6)CC5)C4)cc32)c(Cl)c1 [Example H-63, 2-Chloro-4-methoxy-N-[(1R)-6-(8-pyridin-4-yl-3,8-diazaspiro[4.5]decane-3-carbonyl)-2,3-dihydro-1H-inden-1-yl]-benzamide]"
105,100,"O=C(N[C@@H]1CCc2cc(F)c(C(=O)N3CCC4(CCN(c5ccncc5)CC4)C3)cc21)c1ccccc1Cl [Example H-64, 2-Chloro-N-[(1R)-5-fluoro-6-(8-pyridin-4-yl-3,8-diazaspiro[4.5]decane-3-carbonyl)-2,3-dihydro-1H-inden-1-yl]-benzamide hydrochloride]"

# The remaining lines, values behind:
SMILES,inhibition at 10 µM [1] [%],inhibition at 10 µM [2] [%]
"O=C(N[C@@H]1CCc2ccc(C(=O)N3CCC4(CCC(C(=O)N[C@H]5CN6CCC5CC6)CC4)CC3)cc21)c1ccccc1Cl [Example H-52, N-[(5R)-1-Azabicyclo[2.2.2]octan-5-yl]-3-[(3R)-3-[(2-chloro-benzoyl)amino]-2,3-dihydro-1H-indene-5-carbonyl]-3-azaspiro[5.5]undecane-9-carboxylic acid amide]",46,28
"O=C(N[C@@H]1CCc2ccc(C(=O)N3CCC4(CCC(N5CCn6ncnc6C5)CC4)CC3)cc21)c1ccccc1Cl [Example H-55, 2-Chloro-N-[(1R)-6-[9-(5,6,7,8-tetrahydro-[1,2,4]triazolo[1,5-a]pyrazin-7-yl)-3-azaspiro[5.5]undecane-3-carbonyl]-2,3-dihydro-1H-inden-1-yl]-benzamide]",87,42
"COc1ccc2cc(C(=O)N[C@@H]3CCc4ccc(C(=O)N5CCC6(CCN(c7ccncc7)CC6)C5)cc43)ccc2c1 [Example H-56, 6-Methoxy-N-[(1R)-6-(8-pyridin-4-yl-3,8-diazaspiro[4.5]decane-3-carbonyl)-2,3-dihydro-1H-inden-1-yl]-naphthalene-2-carboxylic acid amide]",68,94
"O=C(N[C@@H]1CCOc2ccc(C(=O)N3CCC4(CC3)CCN(c3ccncc3)C4)cc21)c1ccccc1Cl [Example H-57, 2-Chloro-N-[(4R)-6-(3-pyridin-4-yl-3,8-diazaspiro[4.5]decane-8-carbonyl)-3,4-dihydro-2H-chromen-4-yl]-benzamide]",105,99
"O=C(N[C@@H]1CCOc2ccc(C(=O)N3CCC4(CC3)CCN(c3ccncc3)CC4)cc21)c1ccccc1Cl [Example H-58, 2-Chloro-N-[(4R)-6-(9-pyridin-4-yl-3,9-diazaspiro[5.5]undecane-3-carbonyl)-3,4-dihydro-2H-chromen-4-yl]-benzamide]",106,99
"O=C(N[C@@H]1CCc2ccc(C(=O)N3CCC4(CCC(C(=O)N[C@@H]5CN6CCC5CC6)CC4)CC3)cc21)c1ccccc1Cl [Example H-62, N-[(5S)-1-Azabicyclo[2.2.2]octan-5-yl]-3-[(3R)-3-[(2-chloro-benzoyl)amino]-2,3-dihydro-1H-indene-5-carbonyl]-3-azaspiro[5.5]undecane-9-carboxylic acid amide]",102,30
"O=C(N[C@@H]1CCOc2cc(F)c(C(=O)N3CCC4(CCN(c5ccncc5)CC4)C3)cc21)c1ccccc1Cl [Example H-65, 2-Chloro-N-[(4R)-7-fluoro-6-(8-pyridin-4-yl-3,8-diazaspiro[4.5]decane-3-carbonyl)-3,4-dihydro-2H-chromen-4-yl]-benzamide]",105,100
